Data: publication PMC1790702, “Non-Metabolic Membrane Tubulation and Permeability Induced by Bioactive Peptides” (PLoS ONE, 2007)

How the values were obtained:
[1] = Small angle X-ray scattering of multilamellar vesicles, electron density profiles; assay type: physicochemical; conditions: PC/PG (9/1) MLVs, peptide/lipid 1/20 (w/w)
Procedure: Briefly, samples for SAXS examination were prepared by dissolving dry lipids in chloroform/methanol (2/1, vol/vol) and mixing to obtain the indicated proportions. The solvent was subsequently evaporated under a stream of oxygen-free dry nitrogen at 45°C and traces of solvent removed by a storage under high vacuum for 2 days. In order to obtain the Multiple Lamellar Vesicles (MLVs) the dry lipids were hydrated with an equal weight of buffer (5 mM HEPES pH 7.4). The aqueous lipid dispersion was thoroughly stirred to obtain a homogeneous dispersion, sealed under argon and kept until examination at 4°C. For X-ray measurements, lipid samples (∼20 µl) were deposited between two thin mica windows and mounted on a programmable thermal stage (Linkam, UK). The temperature was monitored by a thermocouple (Quad Service, Poissy, France) inserted directly into the lipid dispersion. Samples were exposed for 30 seconds to the beam (1.5 Å wavelength). The SAXS quadrant detector response was corrected for the uneven channel response using a static radioactive […] and S was calibrated for d-spacing using hydrated rat tail collagen. Information on the setup, calibration, and facilities are available on the station web site (http://www.srs.dl.ac.uk/ncd/station82/description.html).
The electron density profiles of lipid bilayers were obtained by Fourier synthesis of x-ray diffraction patterns. Integrated densities were derived from five diffraction orders (estimated spatial resolution <0.12 nm) by measuring the area under each diffraction peak separated and integrated using the software Peakfit (Seasolve).

[2] = LUV aggregation by turbidimetry
Procedure: (§1) Large unilamellar vesicles (LUV) were prepared by extrusion through a polycarbonate filter (pore diameter 100 nm) in an extrusion device from Avestin as described in [38]. To obtain calcein loaded LUVs, at 2 mg/ml lipid concentration (PC/PG/ [^14C] PC 9/1/0.01 mol ratio), a solution in chloroform was dried under a gentle stream of nitrogen and maintained under vacuum for at least 2 h to ascertain removal of residual solvent. Then, the dried lipid film was hydrated with 1 ml of 70 mM calcein solution in HEPES 10 mM pH 7.4, vigorously vortexed and extruded. Free calcein was separated by passing the suspension trough two gel filtration columns in tandem (Econo-Pac 10 DG, Bio-Rad). The final lipid concentration was quantified measuring the [^14C] PC radiactivity with a liquid scintillation counter LS 6000 SC (Beckman Coulter France).
LUVs aggregation was monitored by turbidimetry (absorbance at 340 nm) in a Cary spectrophotometer (Varian) as described. Peptides were added to a 500 µl quartz cuvette containing 10 µg of LUVs in a HEPES 10 mM pH 7.4 buffer and the absorbance was followed during 20 min after peptide exposure. At this time, membrane aggregation attained the plateau.

[3] = Calcein leakage from LUVs; conditions: peptide/lipid ratio of 1/2; LUVs PC/PG/[14C]PC 9/1/0.01, 70 mM calcein, HEPES 10 mM pH 7.4, 5 min after peptide addition, 25°C, fluorescence, relative to lysis with 1% Triton X-100
Procedure: as §1
The release of calcein after 5 minutes of peptide exposure to LUVs was measured by spectrofluorimetry (Varian eclipse) at excitation and emission wavelengths of 490 nm and 500–650 nm, respectively. […] Leakage was expressed as a percent relative of the total amount of dye released by LUVs lysis with 1% Triton X-100, according to equation: % release = 100×(F(t)−F0)/(FT−F0). F(t) is the fluorescence intensity at time t, F0 is the fluorescence intensity before peptide addition and FT the fluorescence intensity after LUVs lysis.

[4] = Membrane deformations on giant unilamellar vesicles, phase contrast video-microscopy; conditions: GUVs PC/PG 9/1, 25°C
Procedure: Giant unilamellar vesicles (GUVs) were obtained by electroformation as described in [49]. Briefly, 1.5 µl of PC/PG (9/1, w/w) solution (0.4 mg/ml in chloroform/methanol 9/1) were spread on each platinum electrode. The lipid film was dried for half an hour under a gentle stream of nitrogen. The chamber was placed in an inverted microscope (Zeiss Axiovert 200M) and a thermocouple positioned to monitor the temperature (25°C). The electrodes were then completely hydrated with 2 ml of a low ionic strength buffer (HEPES 0.5 mM, pH 7.4 and conductivity 20 µS/cm). Immediately after buffer addition, a low frequency alternating field (5 Hz and 1 V) was applied on the electrodes for at least 2 hours. GUVs of diameter between 10 to 100 µm were observed. […] The observation temperature was 25°C.

[5] = Tryptophan fluorescence, membrane binding; conditions: excitation 280 nm, PC/PG (9/1) LUVs, 25°C
Procedure: Tryptophan fluorescence was measured following the recommendations described in [51]. Excitation wavelength was 280 nm, and emission spectrum was collected (290–600 nm). Excitation and emission slits were 6 nm and 5 nm respectively. A cross-oriented configuration of the polarizer (Expol = 90°, Empol = 0°) was used in order to reduce LUVs diffusion artefacts.

CHO cells = assay: Cytotoxicity, CCK8 cell counting kit; assay type: cell-based; conditions: after 48 hours of incubation of CHO cells with 10 µM peptides, CCK8, DMEM plus 10 % FCS, 37°C
Procedure: (§2) Annexin 2-GFP expression vector was a kind gift of Dr Stephen Moss (London UK). The annexin2-GFP transfected MDCK cloning will be published elsewhere. MDCK cells were cultured as described. Peptides were added at different concentrations and the annexin-GFP fluorescence was followed in a Zeiss inverted microscope. Films were acquired with Metamorph software. Cytotoxicity in CHO cells was evaluated using the CCK8 cell counting kit (Dojindo Laboratories). Briefly, cell suspension (100 µl, 1500 CHO cells per well) were seeded in DMEM plus 10 % FCS in 96-well microtiter plate at 37°C. 10 µl of peptides were added twice to the cells after 24 and 48 hours of cell culture to obtain concentrations of 1, 10, 20 and 50 µM and the toxicity was evaluated 48 after treatment.

[6] = test system: Annexin 2-GFP transfected MDCK cells; assay: Cell permeability, Ca2+ influx monitored by Annexin 2-GFP movement; assay type: cell-based
Procedure: as §2

## RQIKIWFQNRRMKWKK-NH2 [pAntp, Penetratin, cell-penetrating peptide, basic, non-amphipathic, 16 residues, reference compound]
[1]; 5 mM HEPES pH 7.4, 20°C
  S^−1 (repeat distance), Ld1 phase: 6.06 nm
  S^−1 (repeat distance), Ld2 phase: 5.94 nm
[1]; 20°C, peptide-free 2.19
  dwater (thickness of the hydration layer), Ld2 phase: 2.31 nm
[1]; 20°C, peptide-free 2.23
  dwater (thickness of the hydration layer), Ld1 phase: 2.28 nm
[1]; 20°C, peptide-free 3.62
  dbilayer (thickness of the membrane bilayer), Ld2 phase: 3.63 nm
[1]; 20°C, peptide-free 3.90
  dbilayer (thickness of the membrane bilayer), Ld1 phase: 3.78 nm
[2]; discussion, from figure 5
  Peptide/Lipid ratio at which LUVs are aggregated efficiently: 1/20
[2]; turbidity at 340 nm, HEPES 10 mM pH 7.4, 20 min, 25°C
  P/L ratio at the plateau of LUV aggregation: 1/15
[2]; turbidity, absorbance at 340 nm, 10 µg LUVs in 500 µl HEPES 10 mM pH 7.4, 20 min after peptide addition, 25°C
  Peptide/lipid mass ratio (P/L) at which LUV aggregation starts: 1/25
[3]
  Calcein release: 11%
[4]
  Time for growing micro-tubes to invade the entire vesicle internal volume: less than 20 minutes
[5]
  P/L ratio of peptide-membrane saturation (maximal shift in emission wavelength): 1/10
CHO cells
  Lethality: 0%
[6]; 100 µM peptide, Annexin 2-GFP MDCK cells
  Permeability towards ions at high peptide concentration: did not induce any increase in permeability towards ions
[6]; monitored by calcium permeability inducing annexin 2 movement in MDCK cells
  Cell permeabilization: no
